{"source": "patent US20250313635A1", "about": "“ANTI-INTEGRIN ANTIBODIES AND USES THEREOF” (Merck Sharp & Dohme LLC, priority 2022, published 2025)", "key": {"[1]": {"experiment": "Plasma PK analysis in bleomycin model (LC-MS/MS)", "type": "in vivo", "conditions": "mouse, two hours after the last dose at end of study; MK-0429 200 mpk osmotic minipump, Nintedanib 60 mpk po qd", "experimental": "Mice at 12˜13 weeks of age were randomized to five groups: saline, bleomycin instillation with vehicle (osmotic minipump), bleomycin instillation with MK-0429 treatment, bleomycin instillation with vehicle oral treatment, and bleomycin instillation with Nintedanib treatment. All mice were anaesthetized with isoflurane. Bleomycin was dosed by intratracheal (i.t) instillation in a volume of 50 μL, at a dose of 1 unit/kg body weight. After instillation, mice were kept in a heads-up position for 2-5 minutes before putting into cages. MK-0429 (200 mg/kg) was administered by Osmotic pump from day 5 to day 14 and Nintedanib (60 mg/kg) was administered, p.o., q.d., for 14 days. Vehicle was dosed orally at 10 am daily from the day 5 to the end of the studies and dosing volume was 10 mL/kg. For plasma PK analysis, an aliquot of 50 μL plasma was spiked into a 96-well plate, and 200 μL of acetonitrile containing internal standard were added for protein precipitation. The mixture was vortexed, centrifuged at 4000 rpm for 20 minutes. Then 50 μL of supernatant fraction was mixed with 200 μL H2O and the final solution were injected for LC-MS/MS analysis. The methods for quantitative analysis were developed on UPLC (Waters) chromatographic system equipped with an API4000 QTrap™ mass spectrometer (Applied Biosystems, Concord, Ontario, Canada). […]"}, "[2]": {"test_system": "bleomycin-induced lung fibrosis mouse model", "experiment": "Mouse bleomycin lung fibrosis model", "type": "in vivo", "conditions": "MK-0429 200 mpk osmotic minipump, Nintedanib 60 mpk po qd", "experimental": "Mouse bleomycin lungfibrosis models. Adult male C57BL/6 mice (Taconic, Rensselaer, NY) were housed in a temperature and humidity-controlled facility with a 12-hour light: 12-hour dark cycle. Animals had ad libitum access to food (Purina Rodent Chow 5053, LabDiet, St. Louis, MO) and water. All procedures utilizing experimental animals were conducted in accordance with the Guide for the Care and Use of Laboratory Animals, and experimental procedures were reviewed and approved by the Institutional Animal Care and Use Committee at MRL, Kenilworth, NJ.\nFor osmotic minipump implantation, trifluoroacetate (TFA) salt of MK-0429 was formulated in 50% dimethylsulfoxide (DMSO)/50% H2O at a concentration of 416 mg/mL. MK-0429 or vehicle solution were filled in minipumps (Alzet, #1007D, flow rate 0.5 μL/hour). Minipumps were placed in mice subcutaneously in a pocket on the back between the shoulder blades. A small incision was made and a subcutaneous pocket formed by blunt dissection. A sterile minipump was inserted into the subcutaneous pocket. The incision was closed with staples or non-absorbable suture or absorbable (subcuticular) suture. The minipumps were used for continuous drug delivery for two weeks.\nMice at 12˜13 weeks of age were randomized to five groups: saline, bleomycin instillation with vehicle (osmotic minipump), bleomycin instillation with MK-0429 treatment, bleomycin instillation with vehicle oral treatment, and bleomycin instillation with Nintedanib treatment. All mice were anaesthetized with isoflurane. Bleomycin was dosed by intratracheal (i.t) instillation in a volume of 50 μL, at a dose of 1 unit/kg body weight. After instillation, mice were kept in a heads-up position for 2-5 minutes before putting into cages. MK-0429 (200 mg/kg) was administered by Osmotic pump from day 5 to day 14 and Nintedanib (60 mg/kg) was administered, p.o., q.d., for 14 days. Vehicle was dosed orally at 10 am daily from the day 5 to the end of the studies and dosing volume was 10 mL/kg. For plasma PK analysis, an aliquot of 50 μL plasma was spiked into a 96-well plate, and 200 μL of acetonitrile containing internal standard were added for protein precipitation. The mixture was vortexed, centrifuged at 4000 rpm for 20 minutes. Then 50 μL of supernatant fraction was mixed with 200 μL H2O and the final solution were injected for LC-MS/MS analysis. The methods for quantitative analysis were developed on UPLC (Waters) chromatographic system equipped with an API4000 QTrap™ mass spectrometer (Applied Biosystems, Concord, Ontario, Canada). Analyst 1.5 software packages (Applied Biosystems) were used to control the LC-MS/MS system and data acquisition and processing.\nHistopathology analysis. Upon completion of the study, animals were euthanized and tissues were collected for histological assessment. Lung tissues were perfused with 10% formalin, fixed for 24 hours, and then paraffin embedded. Tissue sections were stained with hematoxylin & eosin (H&E) and Masson's trichrome, subsequently evaluated under light microscope. The severity of histopathologic changes and fibrosis in the lung were graded as described previously by pathologists (Ashcroft et al., J. Clin. Pathol. 41, 467-470 (1988); Hubner et al., Biotechniques 44(507-511), 514-607 (2008)). Following deparaffinization and rehydration, each lung tissue section was processed to identify αSMA deposition by immunohistochemistry. The primary antibodies used were αSMA antibody from Sigma. The Aperio ScanScope™ XT Slide Scanner (Aperio Technologies) system was used to capture whole slide digital images with a 20×objective. Digital images were managed using Aperio Spectrum™. The positive stains were identified and quantified using a macro created from a color deconvolution algorithm (Aperio Technologies). Statistical analysis was performed by using One-way ANOVA followed by Tukey's test."}, "[3]": {"test_system": "Normal human lung fibroblasts", "experiment": "αSMA imaging, TGFβ-induced αSMA expression", "type": "cell-based", "conditions": "TGFβ 5 ng/mL, pre-treated 30 minutes, MK-0429 (10 µM) or SB-525334 (10 μM), 48 hours", "experimental": "αSMA imaging. Primary cells (passage 3-5) were grown on Cell carrier Ultra, collagen Type 1 coated 96-well plates (Perkin Elmer, #6055700) at a density of 25,000 cells/well. Once the cells adhere, they were starved in serum free media for 24 hours followed by addition of treatments, i.e., 5 ng/mL TGFβ (Biolegend #580702)±inhibitors. Cells were pre-treated with inhibitors for 30 minutes prior to the addition of TGFβ stimulation. 48 hours post treatment, the cells were fixed in 4% methanol free paraformaldehyde (ThermoFisher Scientific #28908) for 20 minutes at room temperature and incubated with anti-alpha smooth muscle Actin antibody (Abcam #ab7817) at 1:4000 overnight at 4° C. Following primary antibody incubation, cells were incubated with Goat anti-mouse secondary antibody (ThermoFisher Scientific #A32723) at 1:500 and Hoechst (ThermoFisher Scientific #62249) at 1:1000 for one hour at RT. The fixed and stained cells were images for immunofluorescence on Perkin Elmer's Opera Phenix high content Imager."}, "[4]": {"conditions": "14 days treatment, vs BLM-vehicle"}}, "data": [{"smiles": "COC(=O)c1ccc2c(c1)NC(=O)/C2=C(\\Nc1ccc(N(C)C(=O)CN2CCN(C)CC2)cc1)c1ccccc1", "note": "[Nintedanib, reference compound]", "values": [{"measurement": "mean plasma concentration", "setting": "[1]", "result": "656+229 ng/mL"}, {"measurement": "body weight difference vs bleomycin group", "setting": "[2]", "result": "no significant body weight difference"}, {"measurement": "BALF TIMP-1 content", "setting": "[2]; [4]", "result": "significantly decreased"}, {"measurement": "bleomycin-induced αSMA expression (IHC)", "setting": "[2]; [4]", "result": "significantly decreased"}, {"measurement": "inflammation in the lung", "setting": "[2]; [4]", "result": "decreased inflammation"}, {"measurement": "modified Ashcroft score", "setting": "[2]; [4]", "result": "significantly improved"}]}, {"smiles": "Cc1cccc(-c2[nH]c(C(C)(C)C)nc2-c2ccc3nccnc3c2)n1", "note": "[SB-525334, reference compound]", "values": [{"measurement": "αSMA intensity and the percentage of stimulated cells following TGFβ treatment", "setting": "[3]", "result": "significantly reduced"}]}]}
